The target in assay [1] is GDP-bound NRAS wild-type protein (Homo sapiens, UniProt P01111). Description: Binding to NRAS by surface plasmon resonance (SPR), Single Cycle Kinetics. Conditions: SPR; GDP-bound NRAS wild-type protein vs GDP-bound KRAS wild-type protein; KD ratio class.
Assay [2] deals with GDP-bound KRAS wild-type protein (Homo sapiens, UniProt P01116). Nature of the assay: Binding to KRAS by surface plasmon resonance (SPR), Single Cycle Kinetics. Conditions: SPR, Single Cycle Kinetics, 1:1 binding model; GDP-bound KRAS wild-type protein; read-out: KRAS KD.
Chain of GDP-bound KRAS wild-type protein (P01116 whole entry): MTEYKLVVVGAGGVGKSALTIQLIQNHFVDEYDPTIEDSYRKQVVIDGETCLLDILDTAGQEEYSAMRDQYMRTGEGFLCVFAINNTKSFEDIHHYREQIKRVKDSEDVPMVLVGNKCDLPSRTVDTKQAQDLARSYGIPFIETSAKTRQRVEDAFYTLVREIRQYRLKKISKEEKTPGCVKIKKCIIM
Assay [3] addresses GDP-bound HRAS wild-type protein (Homo sapiens, UniProt P01112). Description: Binding to HRAS by surface plasmon resonance (SPR), Single Cycle Kinetics. To be noted: SPR; GDP-bound HRAS wild-type protein vs GDP-bound KRAS wild-type protein; KD ratio class. A general note: Surface plasmon resonance follows binding to a sensor surface in real time, without labels.
Assay [4] relates to human lung cancer strain NCI-H441.

The term Kd denotes the concentration at which binding is half-saturated. A word on the IC50: it is the concentration that inhibits the measured activity by half.
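Wherever IC50 is given: cell proliferation inhibition after four days measured by CellTiter-Glo.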

Chain of GDP-bound HRAS wild-type protein (P01112 whole entry): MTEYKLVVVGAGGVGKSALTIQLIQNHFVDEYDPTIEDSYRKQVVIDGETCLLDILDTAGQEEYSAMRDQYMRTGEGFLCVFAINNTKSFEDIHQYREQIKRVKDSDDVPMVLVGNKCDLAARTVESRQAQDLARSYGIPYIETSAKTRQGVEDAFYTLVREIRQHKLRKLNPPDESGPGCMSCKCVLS
Chain of GDP-bound NRAS wild-type protein (P01111 whole entry): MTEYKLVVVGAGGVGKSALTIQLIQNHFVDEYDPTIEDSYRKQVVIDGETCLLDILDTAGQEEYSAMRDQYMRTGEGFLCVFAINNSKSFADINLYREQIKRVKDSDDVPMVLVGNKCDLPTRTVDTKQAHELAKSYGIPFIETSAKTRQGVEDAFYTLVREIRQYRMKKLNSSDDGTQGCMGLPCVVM

As to `CC[C@H](C)[C@@H]1NC(=O)[C@H](CC2CCC2)N(C)C(=O)C[C@@H](C(=O)N(C)C)N(C)C(=O)[C@H](C2CCCC2)N(C)C(=O)C2(CCCC2)NC(=O)[C@@H]2CCCN2C(=O)[C@H](CCc2cc(F)c(C(F)(F)F)c(F)c2)NC(=O)CN(C)C(=O)[C@H](Cc2ccc(C(F)(F)F)cc2)N2C[C@H](C)CC[C@@H](C2=O)N(C)C(=O)CN(C)C1=O` [PP1386], in assay [1], the “NRAS/KRAS (ratio of KD value for NRAS to KD value for KRAS)” value is “B (a compound having 3 or more and less than 10 is denoted as B)”. In addition, in assay [2], the Kd is 0.082 nM. Further, the “HRAS/KRAS (ratio of KD value for HRAS to KD value for KRAS)” value in assay [3] was “B (a compound having 3 or more and less than 10 is denoted as B)”. Also, 4.2 nM corresponded to half-maximal inhibition in assay [4] (IC50).
On to `CCO[C@@H]1C[C@H]2C(=O)NC3(CCC3)C(=O)N(C)[C@@H](C3CCCC3)C(=O)N(C)[C@H](C(=O)N(C)C)CC(=O)N(C)[C@@H](CC3CCCC3)C(=O)N[C@@H]([C@@H](C)CC)C(=O)N(C)CC(=O)N(C)[C@H]3C/C=C\CCN(C3=O)[C@@H](Cc3ccc(F)cc3)C(=O)N(C)CC(=O)N[C@@H](CCc3ccc4sccc4c3)C(=O)N2C1` [PP1390], for which the “NRAS/KRAS (ratio of KD value for NRAS to KD value for KRAS)” value in assay [1] was “A (a compound having 10 or more and less than 20 is denoted as A)”. Besides, in assay [2], the Kd is 1.1 nM. The “HRAS/KRAS (ratio of KD value for HRAS to KD value for KRAS)” value in assay [3] is “A (a compound having 10 or more and less than 20 is denoted as A)”. In addition, in assay [4], the IC50 was determined as 305 nM.
On to `CCO[C@@H]1C[C@H]2C(=O)NC3(CCC3)C(=O)N(C)[C@@H](C3CCCC3)C(=O)N(C)[C@H](C(=O)N3CCCC3)CC(=O)N(C)[C@@H](CC3CCCC3)C(=O)N[C@@H]([C@@H](C)CC)C(=O)N(C)CC(=O)N(C)[C@H]3C/C=C\CCN(C3=O)[C@@H](Cc3ccc(F)cc3)C(=O)N(C)CC(=O)N[C@@H](CCc3ccc4sccc4c3)C(=O)N2C1` [PP1391], for which the “NRAS/KRAS (ratio of KD value for NRAS to KD value for KRAS)” value in assay [1] was “A (a compound having 10 or more and less than 20 is denoted as A)”. Further, the Kd in assay [2] came to 1.6 nM. Also, the “HRAS/KRAS (ratio of KD value for HRAS to KD value for KRAS)” value in assay [3] is “A (a compound having 10 or more and less than 20 is denoted as A)”. Also, the IC50 in assay [4] stood at 271 nM.
`CCCC[C@H]1C(=O)N[C@@H]([C@@H](C)CC)C(=O)N(C)CC(=O)N(C)[C@H]2C/C=C\CCN(C2=O)[C@@H](Cc2ccc(C(F)(F)F)cc2)C(=O)N(C)CC(=O)N[C@@H](CCc2cc(F)c(C(F)(F)F)c(F)c2)C(=O)N2C[C@H](OCC)C[C@H]2C(=O)NC2(CCC2)C(=O)N(C)[C@@H](C2CCCC2)C(=O)N(C)[C@H](C(=O)N(C)C)CC(=O)N1C` [PP1392, (2S,8S,12R,14S,20S,23S,27S,30S,36S,38Z)-27-butyl-20-cyclopentyl-8-[2-[3,5-difluoro-4-(trifluoromethyl)phenyl]ethyl]-12-ethoxy-N,N,4,19,22,26,32,35-octamethyl-30-[(1S)-1-methylpropyl]-3,6,9,15,18,21,25,28,31,34,42-undecaoxo-2-[[4-(trifluoromethyl)phenyl]methyl]spiro[1,4,7,10,16,19,22,26,29,32,35-undecazatricyclo[34.5.1.0^10,14]dotetracont-38-ene-17,1′-cyclobutane]-23-carboxamide]: in assay [1], the “NRAS/KRAS (ratio of KD value for NRAS to KD value for KRAS)” value was “A (a compound having 10 or more and less than 20 is denoted as A)”. Further, the Kd in assay [2] stood at 0.047 nM. Moreover, in assay [3], the “HRAS/KRAS (ratio of KD value for HRAS to KD value for KRAS)” value was “A (a compound having 10 or more and less than 20 is denoted as A)”. Besides, inhibition in assay [4] was half-maximal at 1.4 nM (IC50).
Turning to `CCO[C@@H]1C[C@H]2C(=O)NC3(CCC3)C(=O)N(C)[C@@H](C3CCCC3)C(=O)N(C)[C@H](C(=O)N3CCOCC3)CC(=O)N(C)[C@@H](CC3CCCC3)C(=O)N[C@@H]([C@@H](C)CC)C(=O)N(C)CC(=O)N(C)[C@H]3C/C=C\CCN(C3=O)[C@@H](Cc3ccc(C(F)(F)F)cc3)C(=O)N(C)CC(=O)N[C@@H](CCc3cc(F)c(C(F)(F)F)c(F)c3)C(=O)N2C1` [PP1393], the “NRAS/KRAS (ratio of KD value for NRAS to KD value for KRAS)” value in assay [1] is “A (a compound having 10 or more and less than 20 is denoted as A)”. Moreover, the Kd in assay [2] turned out to be 0.19 nM. The “HRAS/KRAS (ratio of KD value for HRAS to KD value for KRAS)” value in assay [3] was “A (a compound having 10 or more and less than 20 is denoted as A)”. For the same molecule, the IC50 in assay [4] was determined as 18.2 nM.
Turning to `CCO[C@@H]1C[C@H]2C(=O)NC3(CCC3)C(=O)N(C)[C@@H](C3CCCC3)C(=O)N(C)[C@H](C(=O)N3CCOCC3)CC(=O)N(C)[C@@H](CC3CCCC3)C(=O)N[C@@H]([C@@H](C)CC)C(=O)N(C)CC(=O)N(C)[C@H]3C/C=C\CCN(C3=O)[C@@H](Cc3ccc(C)cc3)C(=O)N(C)CC(=O)N[C@@H](CCc3cc(F)c(C(F)(F)F)c(F)c3)C(=O)N2C1` [PP1394], in assay [1], the “NRAS/KRAS (ratio of KD value for NRAS to KD value for KRAS)” value is “AA (a compound having 20 or more is denoted as AA)”. Further, the Kd in assay [2] turned out to be 0.24 nM. The “HRAS/KRAS (ratio of KD value for HRAS to KD value for KRAS)” value in assay [3] was “A (a compound having 10 or more and less than 20 is denoted as A)”. Also, it took 25.1 nM to reach half-maximal inhibition in assay [4] (IC50).
As to `CCCOC[C@H]1C(=O)N[C@@H]([C@@H](C)CC)C(=O)N(C)CC(=O)N(C)[C@H]2C/C=C\CCN(C2=O)[C@@H](Cc2ccc(C(F)(F)F)cc2)C(=O)N(C)CC(=O)N[C@@H](CCc2cc(F)c(C(F)(F)F)c(F)c2)C(=O)N2C[C@H](OCC)C[C@H]2C(=O)NC2(CCC2)C(=O)N(C)[C@@H](C2CCCC2)C(=O)N(C)[C@H](C(=O)N(C)C)CC(=O)N1C` [PP1395, (2S,8S,12R,14S,20S,23S,27S,30S,36S,38Z)-20-cyclopentyl-8-[2-[3,5-difluoro-4-(trifluoromethyl)phenyl]ethyl]-12-ethoxy-N,N,4,19,22,26,32,35-octamethyl-30-[(1S)-1-methylpropyl]-3,6,9,15,18,21,25,28,31,34,42-undecaoxo-27-(propoxymethyl)-2-[[4-(trifluoromethyl)phenyl]methyl]spiro[1,4,7,10,16,19,22,26,29,32,35-undecazatricyclo[34.5.1.0^10,14]dotetracont-38-ene-17,1′-cyclobutane]-23-carboxamide], the “NRAS/KRAS (ratio of KD value for NRAS to KD value for KRAS)” value in assay [1] was “A (a compound having 10 or more and less than 20 is denoted as A)”. For the same molecule, the Kd in assay [2] is 0.063 nM. Besides, the “HRAS/KRAS (ratio of KD value for HRAS to KD value for KRAS)” value in assay [3] is “B (a compound having 3 or more and less than 10 is denoted as B)”. The molecule also gave a concentration for half-maximal inhibition (IC50) in assay [4] of 3.8 nM.
On to `CCCC[C@H]1C(=O)N[C@@H]([C@@H](C)CC)C(=O)N(C)CC(=O)N(C)[C@H]2C/C=C\CCN(C2=O)[C@@H](Cc2ccc(C(F)(F)F)cc2)C(=O)N(C)CC(=O)N[C@@H](CCc2cc(F)c(C(F)(F)F)c(F)c2)C(=O)N2C[C@H](OCC)C[C@H]2C(=O)NC2(CCC2)C(=O)N(C)[C@@H](C2CCCC2)C(=O)N(C)[C@H](C(=O)N2CCCC2)CC(=O)N1C` [PP1396, (2S,8S,12R,14S,20S,23S,27S,30S,36S,38Z)-27-butyl-20-cyclopentyl-8-[2-[3,5-difluoro-4-(trifluoromethyl)phenyl]ethyl]-12-ethoxy-4,19,22,26,32,35-hexamethyl-30-[(1S)-1-methylpropyl]-23-(pyrrolidine-1-carbonyl)-2-[[4-(trifluoromethyl)phenyl]methyl]spiro[1,4,7,10,16,19,22,26,29,32,35-undecazatricyclo[34.5.1.0^10,14]dotetracont-38-ene-17,1′-cyclobutane]-3,6,9,15,18,21,25,28,31,34,42-undecone], for which, in assay [1], the “NRAS/KRAS (ratio of KD value for NRAS to KD value for KRAS)” value is on record as “AA (a compound having 20 or more is denoted as AA)”. For the same molecule, in assay [2], the Kd was 0.14 nM. Further, the “HRAS/KRAS (ratio of KD value for HRAS to KD value for KRAS)” value in assay [3] is “A (a compound having 10 or more and less than 20 is denoted as A)”. The molecule also returned an IC50 in assay [4] of 19.4 nM.
In the case of `CCCC[C@H]1C(=O)N[C@@H]([C@@H](C)CC)C(=O)N(C)CC(=O)N(C)[C@H]2C/C=C\CCN(C2=O)[C@@H](Cc2ccc(C(F)(F)F)cc2)C(=O)N(C)CC(=O)N[C@@H](CCc2cc(F)c(C(F)(F)F)c(F)c2)C(=O)N2C[C@H](OCC)C[C@H]2C(=O)NC2(CCCC2)C(=O)N(C)[C@@H](C2CCCC2)C(=O)N(C)[C@H](C(=O)N(C)C)CC(=O)N1C` [PP1397, (2S,8S,12R,14S,20S,23S,27S,30S,36S,38Z)-27-butyl-20-cyclopentyl-8-[2-[3,5-difluoro-4-(trifluoromethyl)phenyl]ethyl]-12-ethoxy-N,N,4,19,22,26,32,35-octamethyl-30-[(1S)-1-methylpropyl]-3,6,9,15,18,21,25,28,31,34,42-undecaoxo-2-[[4-(trifluoromethyl)phenyl]methyl]spiro[1,4,7,10,16,19,22,26,29,32,35-undecazatricyclo[34.5.1.0^10,14]dotetracont-38-ene-17,1′-cyclopentane]-23-carboxamide], in assay [1], the “NRAS/KRAS (ratio of KD value for NRAS to KD value for KRAS)” value was “A (a compound having 10 or more and less than 20 is denoted as A)”. For the same molecule, in assay [2], the Kd was found to be 0.073 nM. For the same molecule, in assay [3], the “HRAS/KRAS (ratio of KD value for HRAS to KD value for KRAS)” value is “A (a compound having 10 or more and less than 20 is denoted as A)”. This molecule also had an IC50 in assay [4] of 3.7 nM.

Source of the values: US20240158446A1, “CYCLIC COMPOUND HAVING SELECTIVE INHIBITORY ACTION ON KRAS OVER HRAS AND NRAS” (CHUGAI SEIYAKU KABUSHIKI KAISHA, priority 2021, published 2024).
